The subject of data set [1] is Batilus subtilis ATCC 6633. Nature of the data set: In vitro antimicrobial activity, two-fold agar-plate dilution method (MIC). It counts as cell-based. To be noted: 37° C. for 20 hours, HI-agar; for MIC: 20 h, read-out: minimal inhibitory concentration (MIC). As for the experimental part:
(§1) In vitro Antimicrobial activity was determined by the two-fold agar-plate dilution method as described below.
(§2) One loopful of an overnight culture of each test strain in Tripticase-soy broth (approximately 10^8 viable cells per ml) was streaked on heart infusion agar (HI-agar containing graded concentrations of antimicrobial agents, and the minimal inhibitory concentration (MIC) was expressed in term of μg/ml after incubation at 37° C. for 20 hours.

Data set [2] relates to Staphylococcus aureus 209P JC-1. The data set is described as above. It counts as cell-based. To be noted: 37° C. for 20 hours, HI-agar; for MIC: Staphylococcus aureus, 209P, 20 h, read-out: minimal inhibitory concentration (MIC). Here is the method:
as §1, §2

Data set [3] can be described thus: Determination of serum levels after oral administration in rats (disc method). The format is in vivo, SD strain. The settings on record: rat, 100 mg/kg orally, fasted male SD rats, read-out: Mean Serum Level. As for the experimental part: (2) Test 2: Determination of serum levels after oral administration of anti-microbial agents in rats
6 weeks old male rats, SD strain, each weighing 160-230 g.
The test compound A (100 mg/kg) was given orally to rats which had been fasted overnight. At specified intervals, the rats were anethetized with chloroform and blood samples were collected from the heart. The anti-microbial levels in each serum sample were determined by the disc method using standard solutions prepared with serum from rats.

Another data set has as its system Escherichia coli 29. As to the kind of experiment: Protecting effect in experimental mice infection. It counts as in vivo, ICR strain; Escherichia coli. The settings on record: Escherichia coli 29 injected intraperitoneally; oral dose one hour after injection; 4 days observation; probit method. From the text:
(3) Test 3: Protecting effect in experimental mice infection 4-weeks old male mice, ICR strain, each weighing 20.0±1.5 g. 1.3×10^4 cells of pathogenic microorganisms, suspended in 2.5% mucin, were intraperitoneally injected. One hour after the injection, Compound A was orally given.

A further data set relates to Proteus mirabilis 18. As to the kind of experiment: In vitro antimicrobial activity, two-fold agar-plate dilution method (MIC). To be noted: 37° C. for 20 hours, HI-agar, read-out: minimal inhibitory concentration (MIC). The format is cell-based. As for the experimental part: as §1, §2
The subject of a further data set is Proteus mirabilis 1. Described as above. To be noted: 37° C. for 20 hours, HI-agar, read-out: minimal inhibitory concentration (MIC). It counts as cell-based. Here is the method: as §1, §2
The subject of another data set is Proteus vulgaris 2. The data set is described as above. It counts as cell-based. The settings on record: 37° C. for 20 hours, HI-agar, read-out: minimal inhibitory concentration (MIC). Here is the method: as §1, §2

Each structure is given as a SMILES string. Values after ≈ are worked out from the molar mass of the structure shown.

Take `C=CC1=C(C(=O)O)N2C(=O)C(NC(=O)[C@H](N)c3cccc(NS(C)(=O)=O)c3)[C@H]2SC1` (stereo partly drawn) [Compound A, 7-[2-(3-Methanesulfonamidophenyl)-D-glycinamido]-3-vinyl-3-cephem-4-carboxylic acid]: the MIC in data set [1] is 0.1 µg/mL (≈ 0.221 µM); in data set [2], 1.56 µg/mL (≈ 3.45 µM). In addition, the concentration at 1 h in data set [3] (1 hour) was 38500 ng/mL. The concentration at 2 h in data set [3] (2 hours) worked out at 34900 ng/mL. In addition, the concentration at 4 h in data set [3] (4 hours) came out at 31000 ng/mL. Moreover, the concentration at 6 h in data set [3] (6 hours) was 28800 ng/mL. This molecule gave an ED50 value with Escherichia coli 29 of 0.480 mg/mouse.

For the molecule `C=CC1=C(C(=O)O)N2C(=O)C(NC(=O)Cc3csc(N)n3)[C@H]2SC1` (stereo partly shown) [Compound B, 7-[2-(2-Aminothiazol-4-yl)acetamido]-3-vinyl-3-cephem-4-carboxylic acid], the “minimal inhibitory concentration (MIC)” value in data set [1] is 1.56 µg/mL (≈ 4.26 µM). Moreover, the MIC in data set [2] stood at 1.56 µg/mL (≈ 4.26 µM).

In the case of `C=CC1=C(C(=O)O)N2C(=O)C(NC(=O)C(O)c3csc(N)n3)[C@H]2SC1` (stereo partly shown) [Compound C, 7-[2-(2-Aminothiazol-4-yl)glycolamido]-3-vinyl-3-cephem-4-carboxylic acid], the values for the MIC in data set [1] and in data set [2] were 0.78 µg/mL (≈ 2.04 µM) and 1.56 µg/mL (≈ 4.08 µM), respectively.

With `C=CC1=C(C(=O)O)N2C(=O)C(NC(=O)Cc3cnc(NC=O)s3)[C@H]2SC1` (stereo partly shown) [Compound D, 7-[2-(2-Formamidothiazol-5-yl)acetamido]-3-vinyl-3-cephem-4-carboxylic aci d], the MIC is 0.2 µg/mL (≈ 0.507 µM) in data set [1] and 0.39 µg/mL (≈ 0.989 µM) in data set [2].

`C=CC1=C(C(=O)O)N2C(=O)C(NC(=O)Cc3cnc(N)s3)[C@H]2SC1` (stereo partly shown) [Compound E, 7-[2-(2-Aminothiazol-5-yl)acetamido]-3-vinyl-3-cephem-4-carboxylic acid]: the MIC in data set [1] is 0.05 µg/mL (≈ 0.136 µM); in data set [2], 0.78 µg/mL (≈ 2.13 µM).

As for `C=CC1=C(C(=O)O)N2C(=O)C(NC(=O)Cc3cnc(NS(C)(=O)=O)s3)[C@H]2SC1` (stereo partly shown) [Compound F, 7-[2-(2-Methanesulfonamidothiazol-5-yl)acetamido]-3-vinyl-3-cephem-4-carboxylic acid], the MIC worked out at 0.39 µg/mL (≈ 0.877 µM) in data set [1] and 1.56 µg/mL (≈ 3.51 µM) in data set [2].

In the case of `Br.C=CC1=C(C(=O)O)N2C(=O)C(NC(=O)Cc3csc(NC(=N)N)n3)[C@H]2SC1` (stereo partly shown) [Compound G, 7-[2-(2-Guanidinothiazol-4-yl)acetamido]-3-vinyl-3-cephem-4-carboxylic aci d hydrobromide], the MIC came to 0.1 µg/mL in data set [1] and 0.39 µg/mL in data set [2].

For `C=CC1=C(C(=O)O)N2C(=O)C(NC(=O)Cc3csc(N)n3)[C@H]2SC1` (stereo partly shown) [Compound H, 7-[2-(2-Aminothiazol-4-yl)acetamido]-3-vinyl-3-cephem-4-carboxylic acid], the “minimal inhibitory concentration (MIC)” value in data set [1] turned out to be 0.39 µg/mL (≈ 1.06 µM); in data set [2], 0.78 µg/mL (≈ 2.13 µM).

For `C=CC1=C(C(=O)O)N2C(=O)C(NC(=O)/C(=N\OC)c3csc(N)n3)C2SC1` (stereo not drawn) [Compound I, 7-[2-(2-Aminothiazol-4-yl)-2-methoxyiminoacetamido]-3-vinyl-3-cephem-4-carboxylic acid (syn isomer)], the MIC is under 0.025 µg/mL in the data set on Proteus mirabilis 18 and 0.05 µg/mL (≈ 0.122 µM) in the data set with Proteus mirabilis 1.

With `C=CC1=C(C(=O)O)N2C(=O)C(NC(=O)/C(=N\OCC)c3csc(N)n3)C2SC1` (stereo not drawn) [Compound J, 7-[2-(2-Aminothiazol-4-yl)-2-ethoxyiminoacetamido]-3-vinyl-3-cephem-4-carboxylic acid (syn isomer)], the values for the MIC in data set [1] and in data set [2] were 0.78 µg/mL (≈ 1.84 µM) and 1.56 µg/mL (≈ 3.68 µM), respectively.

Take `C=CC1=C(C(=O)O)N2C(=O)C(NC(=O)/C(=N\OCCCCCC)c3csc(N)n3)C2SC1` (stereo not drawn) [Compound K, 7-[2-(2-Aminothiazol-4-yl)-2-hexyloxyiminoacetamido]-3-vinyl-3-cephem-4-carboxylic acid (syn isomer)]: the MIC in data set [1] was 0.78 µg/mL (≈ 1.63 µM); in data set [2] it was 1.56 µg/mL (≈ 3.25 µM).

As for `C=CC1=C(C(=O)O)N2C(=O)C(NC(=O)/C(=N\OCC(=O)OC[C@H](N)C(=O)O)c3csc(N)n3)C2SC1` (stereo partly drawn) [Compound L, 7-[2-(2-Aminothiazol-4-yl)-2-(L-2-amino-2-carboxyethoxycarbonylmethoxyimino)acetamido]-3-vinyl-3-cephem-4-carboxylic acid (syn isomer)], the MIC with Proteus mirabilis 18 and in the data set with Proteus mirabilis 1 was 0.05 µg/mL (≈ 0.0925 µM) throughout.

Turning to `C=CC1=C(C(=O)O)N2C(=O)C(NC(=O)/C(=N\OCC(=O)O)c3csc(N)n3)C2SC1` (stereo not drawn) [Compound M, 7-[2-(2-Aminothiazol-4-yl)-2-carboxymethoxyiminoacetamido]-3-vinyl-3-cephem-4-carboxylic acid (syn isomer)], the MIC in the data set with Proteus mirabilis 18 and with Proteus mirabilis 1 was under 0.025 µg/mL throughout.

As for `C=CC1=C(C(=O)O)N2C(=O)C(NC(=O)/C(=N\OCC(=O)O)c3nc(N)sc3Cl)C2SC1` (stereo not drawn) [Compound N, 7-[2-(2-Amino-5-chlorothiazol-4-yl)-2-carboxymethoxyiminoacetamido]-3-vinyl-3-cephem-4-carboxylic acid (syn isomer)], the MIC amounted to 0.05 µg/mL (≈ 0.102 µM) with Proteus mirabilis 18, 0.2 µg/mL (≈ 0.41 µM) in the data set with Proteus mirabilis 1 and 0.05 µg/mL (≈ 0.102 µM) in the data set with Proteus vulgaris 2.

In the case of `C=CC1=C(C(=O)O)N2C(=O)C(NC(=O)/C(=N\OC/C=C/C(=O)O)c3csc(N)n3)C2SC1` (stereo not drawn) [Compound O, 7-[2-(2-Aminothiazol-4-yl)-2-(trans-3-carboxyallyloxyimino)acetamido]-3-vinyl-3-cephem-4-carboxylic acid (syn isomer)], the MIC is 0.1 µg/mL (≈ 0.209 µM) in the data set with Proteus mirabilis 18, 0.1 µg/mL (≈ 0.209 µM) in the data set with Proteus mirabilis 1 and under 0.025 µg/mL in the data set on Proteus vulgaris 2.

For `C=CC1=C(C(=O)O)N2C(=O)C(NC(=O)/C(=N\OCCCC(=O)O)c3csc(N)n3)C2SC1` (stereo not drawn) [Compound P, 7-[2-(2-Aminothiazol-4-yl)-2-(3-carboxypropoxyimino)acetamido]-3-vinyl-3-cephem-4-carboxylic acid (syn isomer)], the MIC was 0.05 µg/mL (≈ 0.104 µM) in the data set on Proteus mirabilis 18, 0.1 µg/mL (≈ 0.208 µM) in the data set on Proteus mirabilis 1 and under 0.025 µg/mL in the data set on Proteus vulgaris 2.

Values taken from patent publication US4487927A, “3-Phosphonium and 3-phosphoranylidenecephems” (Fujisawa Pharmaceutical Co., Ltd., priority 1979, dated 1984).
